From patent US9988430B2, “Stable GLP-1 based GLP-1/glucagon receptor co-agonists” (Novo Nordisk A/S, priority 2014, dated 2018) come the findings set out here.

Data set [1] addresses T1, human GLP-1 receptor (Homo sapiens, UniProt P43220).
T1 construct: expressed in transfected cells; host or cells: membranes of BHK cells, parent line BHKTS13, clone FCW467-12A
Kind of data set: Assay (I)(a): GLP-1 receptor potency, CRE luciferase reporter gene assay in BHK cells. Type of data set: cell-based. The note with it: BHK cells expressing human GLP-1 receptor, read-out: EC50 GLP-1R. A digest of the protocol:
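BHK cells (clone FCW467-12A/KZ10-1), 5×10EE3/well, exposed 3 h at 37° C to compound at 1×10EE-13 to 1×10EE-6 M final in medium with 2% ovalbumin and 0.2% Pluronic F-68. Luciferase luminescence read; EC50 (pM) from four-parameter fit.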
(A reporter such as luciferase makes a cellular process visible.)

Data set [2] can be described thus: Assay (V): chemical stability assessment by RP-UPLC. Type of data set: physicochemical. The note with it: 14 days at 37° C. in phosphate buffer (pH 7.3). In outline:
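Lyophilized peptide dissolved in 8 mM phosphate pH 8.6, adjusted to pH 7.3, final 333 μM, held 14 days at 5° C and 37° C. Purity is main-peak area % by RP-UPLC with UV detection at 215 nm. Degradation is the 5° C minus 37° C purity difference divided by the 5° C purity.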

*1 amine or outer side, *2 acyl side, *3 side chain or, on linkers, in order; H or OH if unused. Where a SMILES comes first, the peptide text is derived from it. Bridges are numbered along the chain shown (N, C = ends). Roman numbers before positions name the chains, in order. [ ]: non-standard residue; d: D form. The star is where a group is joined. C18 diacid = O=C(O)CCCCCCCCCCCCCCCCC(=O)*; γGlu = O=C(O)[C@H](CCC(=O)[*:2])N[*:1]; Desaminohistidyl = O=C(CCc1c[nH]cn1)*; Ac4c = NC1(C(=O)O)CCC1

T1 sequence (P43220 24-463): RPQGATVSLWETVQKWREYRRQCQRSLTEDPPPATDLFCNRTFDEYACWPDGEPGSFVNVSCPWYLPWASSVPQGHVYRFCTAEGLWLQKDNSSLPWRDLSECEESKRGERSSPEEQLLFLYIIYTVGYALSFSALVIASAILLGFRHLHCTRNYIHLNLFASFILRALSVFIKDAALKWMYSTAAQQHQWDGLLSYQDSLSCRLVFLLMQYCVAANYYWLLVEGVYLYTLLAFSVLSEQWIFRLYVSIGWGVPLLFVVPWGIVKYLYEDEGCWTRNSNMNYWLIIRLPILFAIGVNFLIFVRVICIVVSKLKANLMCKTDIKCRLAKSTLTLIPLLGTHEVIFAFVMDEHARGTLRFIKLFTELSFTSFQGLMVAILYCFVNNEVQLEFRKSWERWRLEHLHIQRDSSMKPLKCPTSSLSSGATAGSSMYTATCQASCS

What is called EC50 is the concentration that produces a half-maximal response. For `CC[C@H](C)[C@H](NC(=O)[C@H](Cc1ccccc1)NC(=O)[C@H](CCC(=O)O)NC(=O)[C@H](CCCNC(=N)N)NC(=O)[C@H](C)NC(=O)[C@H](C)NC(=O)[C@H](CCCNC(=N)N)NC(=O)CNC(=O)[C@H](CCC(=O)O)NC(=O)[C@H](CC(C)C)NC(=O)[C@H](Cc1ccc(O)cc1)NC(=O)[C@H](CCCCN)NC(=O)[C@H](CO)NC(=O)[C@@H](NC(=O)[C@H](CC(=O)O)NC(=O)[C@H](CO)NC(=O)[C@@H](NC(=O)[C@H](Cc1ccccc1)NC(=O)[C@@H](NC(=O)CNC(=O)[C@H](Cc1c[nH]cn1)NC(=O)C1(NC(=O)CCc2c[nH]cn2)CCC1)[C@@H](C)O)[C@@H](C)O)C(C)C)C(=O)N[C@@H](C)C(=O)N[C@@H](Cc1c[nH]c2ccccc12)C(=O)N[C@@H](CC(C)C)C(=O)N[C@@H](CC(C)C)C(=O)N[C@@H](CCCCNC(=O)CNC(=O)[C@H](CO)NC(=O)[C@H](CCC(=O)O)NC(=O)CNC(=O)[C@H](CO)NC(=O)CC[C@H](NC(=O)CC[C@H](NC(=O)CCCCCCCCCCCCCCCCC(=O)O)C(=O)O)C(=O)O)C(=O)N[C@H](C(N)=O)[C@@H](C)O` [Example 20, N^ε34-[2-[[(2S)-2-[[(2S)-4-carboxy-2-[[2-[[(2S)-2-[[(4S)-4-carboxy-4-[[(4S)-4-carboxy-4-(17-carboxyheptadecanoylamino)butanoyl]amino]butanoyl]amino]-3-hydroxypropanoyl]amino]acetyl]amino]butanoyl]amino]-3-hydroxypropanoyl]amino]acetyl]-[Imp7,Acb8,His9,Lys18,Arg23,Arg26,Leu33,Thr35]-GLP-1-(7-35)-peptide amide] (I: Desaminohistidyl-[Ac4c]HGTFTSDVSKYLEGRAAREFIAWLLKT-NH2 / II: {C18 diacid-γGlu-γGlu}-SGESG; amide I:27-II:C), the EC50 in data set [1] is 0.012 nM. The “Chemical stability: Chemical degradation over 14 days at 37° C.” value in data set [2] was found to be 0.4%.
